Assay results published in the supplement of paper PMC13380429.

Legend:
Conditions in all cases: 72 h
[1] = system: U2OS; assay: cell viability relative to DMSO; higher = less toxic
[2] = system: Caco-2; assay: as above
[3] = system: Calu-3; assay: as above
[4] = system: HepG2; assay: as above
[5] = system: Vero E6; assay: as above
[6] = system: U2OS; assay: relative viability EC50 (midpoint between 100% and the lowest measured viability); higher = less toxic
[7] = system: Caco-2; assay: as above
[8] = system: Calu-3; assay: as above
[9] = system: HepG2; assay: as above
[10] = system: Vero E6; assay: as above
[11] = system: U2OS; assay: drug sensitivity score (DSS) for viability; higher = more toxic; extreme values may be limits of the assay
[12] = system: Caco-2; assay: as above
[13] = system: Calu-3; assay: as above
[14] = system: HepG2; assay: as above
[15] = system: Vero E6; assay: as above

Structure (SMILES) | cell viability ([1]; 1 nM) | cell viability ([1]; 10 nM) | cell viability ([1]; 100 nM) | cell viability ([1]; 1000 nM) | cell viability ([1]; 10000 nM) | cell viability ([2]; 1 nM) | cell viability ([2]; 10 nM) | cell viability ([2]; 100 nM) | cell viability ([2]; 1000 nM) | cell viability ([2]; 10000 nM) | cell viability ([3]; 1 nM) | cell viability ([3]; 10 nM) | cell viability ([3]; 100 nM) | cell viability ([3]; 1000 nM) | cell viability ([3]; 10000 nM) | cell viability ([4]; 1 nM) | cell viability ([4]; 10 nM) | cell viability ([4]; 100 nM) | cell viability ([4]; 1000 nM) | cell viability ([4]; 10000 nM) | cell viability ([5]; 1 nM) | cell viability ([5]; 10 nM) | cell viability ([5]; 100 nM) | cell viability ([5]; 1000 nM) | cell viability ([5]; 10000 nM) | relative viability EC50 [6] | relative viability EC50 [7] | relative viability EC50 [8] | relative viability EC50 [9] | relative viability EC50 [10] | drug sensitivity score [11] | drug sensitivity score [12] | drug sensitivity score [13] | drug sensitivity score [14] | drug sensitivity score [15]
COc1ccc(C(CN(C)C)C2(O)CCCCC2)cc1 (stereo not given) [venlafaxine] | 97.1% | 91.5% | 102% | 97.4% | 102% | 110% | 87.5% | 125% | 127% | 82% | 104% | 99.9% | 95.6% | 99.9% | 107% | 108% | 112% | 95.8% | 93.2% | 107% | 99.2% | 100% | 84.1% | 92.9% | 101% | > 10 µM | > 10 µM | > 10 µM | > 10 µM | > 10 µM | 0 | 0.2 | 0 | 0 | 0
C=CC(N)CCC(=O)O (stereo not given) [vigabatrin] | 95.9% | 103% | 96.8% | 99.4% | 91.7% | 93.7% | 96.1% | 101% | 98.1% | 93.2% | 103% | 105% | 99% | 102% | 106% | 100% | 89.6% | 113% | 96.1% | 104% | 96.5% | 93.8% | 101% | 88.4% | 97.1% | > 10 µM | > 10 µM | > 10 µM | > 10 µM | > 10 µM | 0 | 0 | 0 | 0 | 0
CC[C@@H]1C(=O)N(C)c2cnc(Nc3ccc(C(=O)N[C@H]4CC[C@H](N5CCN(CC6CC6)CC5)CC4)cc3OC)nc2N1C(C)C [volasertib] | 99% | 99.4% | 87.2% | 29.1% | 18.7% | 104% | 93.2% | 74% | 57.8% | 26.7% | 112% | 86.8% | 91.3% | 83.3% | 22.1% | 106% | 104% | 42.7% | 17.6% | 9.1% | 101% | 98% | 90.6% | 18.3% | 1.5% | 0.293 µM | 0.36 µM | 1.67 µM | 0.081 µM | 0.386 µM | 14.7 | 11.5 | 7 | 23.2 | 16.3
COc1cc(C(=O)NS(=O)(=O)c2ccccc2C)ccc1Cc1cn(C)c2ccc(NC(=O)OC3CCCC3)cc12 [zafirlukast] | 92.7% | 98.4% | 103% | 105% | 100% | 92.3% | 104% | 105% | 97.8% | 99.2% | 96.9% | 101% | 97.2% | 100% | 110% | 104% | 101% | 109% | 94.6% | 96.6% | 96.2% | 92.5% | 91.2% | 94.2% | 94.6% | > 10 µM | > 10 µM | > 10 µM | > 10 µM | > 10 µM | 0 | 0 | 0 | 0 | 0
